Test results taken from US12441732B2, “Potassium salt crystal form B of phosphodiesterase type 5 inhibitor, and preparation method and use therefor” (Guangzhou Huazhen Pharmaceutical Co., Ltd, priority 2019, dated 2025).

Columns and labels:
UIRI model mice = test: Unilateral renal ischemia-reperfusion mouse model (UIRI model) of renal fibrosis; assay type: in vivo, BALB/c mice; settings: 5 mg·kg^−1·d^−1 gavage, 10 days
Excerpt: Fifteen male BALB/c mice were randomly divided into: a Sham group (a sham-operation group) including 5 mice, and a surgical modeling group including 10 mice. Surgical method: mice were anesthetized and incised on the left side of the abdomen to expose the kidney, and the renal pedicle was bluntly dissected. In the sham-operation group, the renal pedicle was only exposed without clamping; in the modeling group, the left kidney renal pedicle was clamped with a non-invasive miniature arterial clamp for 30 min, and the mice were placed on a thermostat plate at 37° C. to maintain a constant body temperature during the clamping period, and the surgical incision was covered with saline-impregnated gauze to prevent dehydration of the renal tissue. The arterial clamp was removed after 30 min, and it was observed that the kidney changed gradually from purple-black to bright red within 1 min, indicating successful blood reperfusion. The kidney was returned to its original position and the wound was sutured. The mice in the modeling group were randomly divided into 2 groups: a UIRI group (a model group) and a treatment group of the potassium salt crystal form B of WYQ (5 mg/kg), 5 mice in each group.
The first gavage administration was started 2 hours after the operation.
(2) treatment group of the potassium salt crystal form B of WYQ: the potassium salt crystal form B of WYQ was diluted into a 1 mg/ml solution with normal saline and administered by gavage at the dose of 5 mg·kg^−1·d^−1; and
administered once a day for consecutive 10 days.
On the 10th after operation, mice were anesthetized in the same way, the right dorsum was incised to expose the right kidney, and the renal pedicle was ligated before removing the right kidney. The mice in the sham-operation group were only stripped of the perirenal membrane without removing the right kidney. On the 11th after operation, all the mice were sacrificed, the abdominal cavity was opened, and the left kidney tissues of the mice were peeled off, caring to maintain the integrity of the kidney. After the kidney is taken out, the kidney is quickly transferred to pre-chilled PBS, and the kidney is cut for different tests. The kidney is divided into four parts with a scalpel, wherein the upper and lower ventral poles of the kidney were put into liquid nitrogen for extraction of protein and mRNA, and detection of changes in the expression amount of fibrosis-related factors proteins and genes. After 2 hours, the kidney tissue was transferred and stored in the refrigerator at −80° C. The dorsal side of the kidney was fixed in 4% paraformaldehyde for making paraffin sections. The morphological changes of the kidney tissue were observed by HE staining and Masson staining, and the changes of the expression of fibrosis marker proteins in the kidney tissues were observed by immunohistochemistry.

[1] = system: rats with isoproterenol-induced myocardial hypertrophy; test: Isoproterenol-induced myocardial hypertrophy in rats; assay type: in vivo, SD rats; settings: Iso rats, 2 mg·kg^−1·d^−1 gavage, 7 days
Description: SD rats were randomly divided into 3 groups, 10 rats/group: a normal control group (CON); an isoproterenol-induced myocardial hypertrophy model group (Iso); an Iso+the potassium salt crystal form B of WYQ treatment group (hereafter referred to as a treatment group).
Isoproterenol was prepared into a 4 mg/ml medicinal solution with double-distilled water, which was ready to be used. The normal control group was injected with normal saline (5 mg/kg) subperitoneally, and the rest of the groups were injected with isoproterenol (5 mg/kg) subperitoneally once a day for 7 consecutive days.
Treatment group: the potassium salt crystal form B of WYQ was prepared into a 0.4 mg/ml medicinal solution with normal saline (ready to use) and administered by gavage at a dose of 2 mg·kg^−1·d^−1; and
the day of injection was the starting date of the experiment, and the administration was started 2 hours after the modeling, once a day for 7 consecutive days.
After 7 days from the starting date of the experiment, the left ventricle was intubated retrogradely through the right common carotid artery, and the hemodynamic indexes of each group of rats were collected on the RM-6240E polygraph, including the left ventricular pressure (LVP) and the rate of ventricular pressure change (dp/dt).
One week after the starting date of the experiment, the animals were anesthetized and hemodynamically tested (RM-6240E polygraph). The animals were sacrificed after pressure measurement. The heart tissues were immediately dissected and rinsed in frozen normal saline to remove blood. The heart was weighed quickly, and the left and right atria are cut along the atrio-ventricular junction with ophthalmic scissors. The left ventricle was separated, and absorbed water with filter paper, weighed, and put into liquid nitrogen for extraction of protein and mRNA to detect changes in the expression of hypertrophy-related factor genes. After 2 hours, the left ventricle tissue was transferred to a refrigerator at −80° C. for freezing and storage. After completing the above operations, the leg skin and muscles of the rats were cut with surgical scissors to fully expose the tibia, and the length of the tibia was measured. The myocardial hypertrophy index of rats was expressed by a heart-tibia length (HW-Tibia).

CCCCOC(=O)[N-]S(=O)(=O)c1cccc(-c2nc3c(CCC)nn(C)c3c(=O)[nH]2)c1.[K+] [potassium salt crystal form B]
significantly reduced: Collagen I protein expression in kidney tissue (Western Blot) vs UIRI model (UIRI model mice) | FN1 protein expression in kidney tissue (Western Blot) vs UIRI model (UIRI model mice) | FN1 protein expression level in renal fibrotic lesions (immunohistochemistry) (UIRI model mice) | PAI-1 protein expression in kidney tissue (Western Blot) vs UIRI model (UIRI model mice) | α-SMA protein expression in kidney tissue (Western Blot) vs UIRI model (UIRI model mice) | α-SMA protein expression level in renal fibrotic lesions (immunohistochemistry) (UIRI model mice) | inflammatory cell infiltration in the kidneys (UIRI model mice; HE/Masson staining) | HW-Tibia ratio vs model group [1] | left ventricle-tibia length ratio vs model group [1]
significantly decreased: BNP gene expression in heart tissue vs model group [1] | expression of ANP gene in left heart tissue vs model group [1] | expression of ANP protein in left heart tissue vs model group [1]
decreased: extracellular matrix deposition in the kidneys (UIRI model mice; HE/Masson staining)
significantly higher: Max dp/dt vs model group [1] | Min dp/dt vs model group [1] | left ventricular pressure (LVP) vs model group [1]
